Experimental data from patent US8987281B2, “Methods of treating cancer” (Endocyte, Inc., priority 2010, dated 2015).

Tested on: KB tumors
Test: In vivo antitumor experiments, s.c. KB tumors in nu/nu mice
Conditions: i.v., EC145 1 μmol/kg/injection TIW 2 weeks
Protocol: Four to six week-old female nu/nu mice (Charles River, Wilmington, Mass.) or six to seven week-old female Balb/c mice (Harlan Sprague Dawley, Inc., Indianapolis, Ind.) were maintained on a standard 12 h light-dark cycle and fed ad libitum with folate-deficient chow (Harlan diet #TD00434, Harlan Teklad, Madison, Wis.) for the duration of the experiment. FR-positive human nasopharyngeal KB cells and human ovarian IGROV cells were grown continuously as a monolayer, using folate-free RPMI medium (FFRPMI) containing 10% heat-inactivated fetal calf serum (HIFCS) at 37° C. in a 5% CO2/95% air-humidified atmosphere with no antibiotics. Syngeneic FR-positive Madison 109 (M109) lung carcinoma cells were generated from M109 tumors and cultured for a few days in FFRPMI containing 10% HIFCS for a few days before implantation in mice. KB cells (1×10^6 per nu/nu mouse), M109 cells (1×10^6 per Balb/c mouse), IGROV cells (4×10^6 per nu/nu mouse) in 100 μL were injected in the subcutis of the dorsal medial area. Mice were divided into groups of five, and test articles were freshly prepared and injected through the lateral tail vein under sterile conditions in a volume of 200 μL of phosphate-buffered saline (PBS). […] The mice in the control groups received no treatment. Growth of each s.c. tumor was followed by measuring the tumor three times per week during treatment and twice per week thereafter until a volume of 1500 mm^3 was reached. Tumors were measured in two perpendicular directions using Vernier calipers, and their volumes were calculated as 0.5×L×W^2, where L=measurement of longest axis in mm and W=measurement of axis perpendicular to L in mm. As a general measure of toxicity, changes in body weights were determined on the same schedule as tumor volume measurements. Survival of animals was monitored daily. Animals that were moribund (or unable to reach food or water) were euthanized by CO2 asphyxiation. All in vivo studies were performed in accordance with the American Accreditation Association of Laboratory Animal Care guidelines.
For individual tumors, a partial response (PR) was defined as volume regression>50% but with measurable tumor (>2 mm^3) remaining at all times. Complete response (CR) was defined as a disappearance of measurable tumor mass (<2 mm^3) at some point until the end of the study. Cures were defined as CR's without tumor re-growth within the study time frame.
See FIG. 1 for tumor response and FIG. 2 for weight change during the treatment period.
See FIG. 3 for tumor response and FIG. 4 for weight change during the treatment period.
See FIG. 5 for tumor response and FIG. 6 for weight change during the treatment period.

[1] = KB tumors 144-212 mm^3, five animals per group, Docetaxel 10 mg/kg TIW 1 week (FIG. 1)
[2] = KB tumors 111-173 mm^3, five animals per group, Paclitaxel 20 mg/kg TIW in Cremophor/ethanol 1 week (FIG. 5)

Row | SMILES | Cures [1] | complete responses [1] | partial responses [1] | Cures [2] | complete responses [2]
1 | CC(=O)O[C@@]12CO[C@@H]1C[C@H](O)[C@@]1(C)C(=O)[C@H](O)C3=C(C)[C@@H](OC(=O)[C@H](O)[C@@H](NC(=O)OC(C)(C)C)c4ccccc4)C[C@@](O)([C@@H](OC(=O)c4ccccc4)[C@H]21)C3(C)C [Docetaxel, docetaxel] | no | no | no |  | 
2 | CC(=O)O[C@H]1C(=O)[C@@]2(C)[C@H]([C@H](OC(=O)c3ccccc3)[C@]3(O)C[C@H](OC(=O)[C@H](O)[C@@H](NC(=O)c4ccccc4)c4ccccc4)C(C)=C1C3(C)C)[C@]1(OC(C)=O)CO[C@@H]1C[C@@H]2O [Paclitaxel, paclitaxel] |  |  |  | 3 | 2
